This is an account of results in patent US10669287B2, “Curcumin-boron complex and pharmaceutical containing same” (JAPAN SCIENCE AND TECHNOLOGY AGENCY, priority 2016, dated 2020).

Structures are written as SMILES. Like-named read-outs stand apart in the source and are kept apart here.

Data set [1] deals with PC 12 cells. In words: Cytotoxicity under light irradiation, WST-8 cell viability, Test Example 2. It is filed as cell-based, rat. As to conditions: LED 660 nm, 10 mW, 5 minutes, then 48 hours. Background: Tetrazolium assays rely on reduction of a dye to a coloured formazan, in cell work by metabolically active cells.
Method: A culture medium for rat adrenal medulla-derived pheochromocytoma PC 12 cells (purchased from RIKEN, Japan) seeded on a poly-D-lysine-coated 96-well plate was replaced with 75 μL of a Dulbecco's modified Eagle's medium containing 0.1% horse serum, and the culture was incubated in a 5% CO2 atmosphere at 37° C. for 1 day, and 25 μL of a phosphate buffer saline (pH 7.4) containing a inventive compound was then added thereto. Thereafter, the mixed solution was incubated under LED irradiation (wavelength: 660 nm, 10 mW) (without light irradiation for dark) at 37° C. for 5 minutes. Further, the cell culture plate containing the reaction solution was incubated in a 5% CO2 atmosphere at 37° C. for 48 hours. Finally, the Cell Count Reagent SF (10 μL: purchased from NACALAI TESQUE, INC.) containing WST-8 was added, and the culture was incubated in a 5% CO2 atmosphere at 37° C. for 3 hours, and thereafter the cell viability was determined from the absorbance at 450 nm (reference wavelength: 655 nm).
The nature of data set [2]: Stability of catalyst in neutral phosphate buffer without or under light irradiation (HPLC), Test Example 5. In kind it is physicochemical. As to conditions: under light irradiation (660 nm). How it is done: A neutral phosphate buffer containing a catalyst was incubated without light irradiation or under light irradiation (660 nm), and thereafter ethanol containing benzyl alcohol (as an internal standard) was added thereto, and analysis was performed by using HPLC.

Another data set addresses T1, Arctic Aβ1-38 (Homo sapiens, UniProt P05067, E693G).
T1 construct: The peak intensity decreased by 36%/53%/74% for Arctic Aβ1-38; from tissue; host or cells: cerebral cortex and hippocampus of App knock-in mouse
In kind it is biochemical. As to conditions: mouse brain lysate, light 780 nm. How it is done:
(§1) The brain excised from an eight-month-old App knock-in (App^NL-C-F/NL-C-F) mouse (Alzheimer's model mouse) was separated into the cerebral cortex, the hippocampus, and the residual brain tissues. The cerebral cortex and the hippocampus were homogenized together in a phosphate buffer saline, and the suspension was stored at −80° C. […] At an arbitrary point of time, an arbitrary aliquot of the reaction mixture was diluted with formic acid to a final concentration of 70%, concentrated, and redissolved in a 6 M aqueous solution of urea.

The subject of a further data set is Arctic Aβ1-42. In words: Oxygenation reaction in mouse brain extract, Test Example 6. It is filed as biochemical. As to conditions: mouse brain lysate, light 780 nm. How it is done:
as §1

The nature of data set [3]: Conversion of N-benzoyl-Met under different glycerol concentrations, Test Example 8. As to conditions: compound 2 μM, N-benzoyl-Met 2 mM, glycerol-methanol 0, 10, 30, or 50% glycerol, 780 nm, room temperature. How it is done:
To a glycerol-methanol mixed solvent (glycerol: 0, 10, 30, or 50%), furfuryl alcohol or N-benzoyl-Met (2 mM in each case) and the compound E (2 μM) were added, and the mixture was subjected to light irradiation (wavelength: 780 nm) at room temperature, and the concentration of furfuryl alcohol or N-benzoyl-Met was quantified by using a UV absorptiometer with LC/MS 10 minutes, 20 minutes, and 30 minutes after the initiation of light irradiation.

Another data set deals with T2, Aβ1-42 (Homo sapiens, UniProt P05067).
T2 construct: phosphate buffer (pH 7.4)/cell culture solution (containing 0.1% horse serum) (1:3) containing Aβ1-42 (10 μM)
Briefly: Degree of oxygenation of pre-aggregated Aβ1-42 (MALDI-TOF MS), Test Example 10. As to conditions: pre-aggregated Aβ1-42 20 μM, catalyst 2 μM, phosphate buffer pH 7.4, 780 nm (14 mW), 37° C., 30 minutes. In kind it is biochemical. Here is the method: Aβ1-42 isopeptide (concentration: 250 μM in 0.1% aqueous solution of trifluoroacetic acid), angiotensin IV (200 μM aqueous solution), Met-enkephalin (200 μM aqueous solution), and somatostatin (200 μM aqueous solution) were added to a phosphate buffer or phosphate buffer saline (pH 7.4) (with 0.1 M aqueous solution of sodium hydroxide, as necessary) so that a final peptide concentration of 20 μM or 40 μM (pH 7.4) was reached. Before being subjected to oxygenation reaction, the Aβ1-42 solution was incubated at 37° C. for 1 to 3 hours. The phosphate buffer containing 40 μM of Aβ was diluted with a Dulbecco's modified Eagle's medium (DMEM, Life Technologies) containing 0.1% horse serum and buffered with 25 mM of 4-(2-hydroxyethyl)-1-piperazineethanesulfonic acid (HEPES).
Solutions of the compounds with a final concentration of 2 μM were used for evaluation of oxygenation of Aβ1-42. Solutions of the compounds with a final concentration of 5 μM were used for evaluation of peptide selectivity. Each mixture was subjected to light irradiation with an LED (wavelength: 500, 660, or 780 nm) at a distance of approximately 5 to 10 cm at room temperature. A control group without light irradiation was additionally prepared. Reaction was analyzed through monitor analysis with a MALDI-TOF MS. Degree of oxygenation was determined as a ratio: degree of oxygenation (%)=(total of MS intensities for n[O] adducts)/(MS intensity for native+total of MS intensities for n[O] adducts)×100. Aliquots of each reaction solution were desalted with a ZipTip U-C18 (Merck Millipore), as necessary, before mass spectrometry.
a: A phosphate buffer (pH 7.4) solution containing pre-aggregated Aβ1-42 (20 μM, incubated at 37° C. for 3 hours) and a catalyst (2 μM) was subjected to light irradiation (wavelength: 660 nm) at 37° C. for 30 minutes. Thereafter, the reaction mixture was analyzed by using a MALDI-TOF MS.
a: A phosphate buffer (pH 7.4) containing pre-aggregated Aβ1-42 (20 μM, obtained through incubation at 37° C. for 3 hours) and a catalyst (2 μM) were subjected to light irradiation at 780 nm (14 mW) at 37° C. for 30 minutes. The reaction mixture was analyzed by using a MALDI-TOF MS.

The test system of data set [4] is PC 12 cells. In kind it is cell-based. Here is the method:
Rat pheochromocytoma PC 12 cells were suspended with DMEM containing 5% horse serum and 10% fetal bovine serum, seeded in a poly-D-lysine-coated 96-well plate at a concentration of 10,000 cells per well, and incubated in a 5% carbon dioxide atmosphere at 37° C. for 3 days. After the solvent was removed, the cells were washed with 150 μL of serum-free DMEM, and DMEM (75 μL) containing 0.1% horse serum was added thereto. Thereafter, the 96-well plate was incubated in a 5% carbon dioxide atmosphere at 37° C. for 1 day for use in oxygenation reaction. In oxygenation reaction, the compound E (100 μM dimethyl sulfoxide solution) was added to a phosphate buffer saline containing Aβ (aggregated in advance for 3 hours, 40 μM) and 25 μL of the above cell solution (final concentration of Aβ: 10 μM, final concentration of compound E: 1 μM). The mixture was irradiated with an LED (wavelength: 780 nm) at a distance of approximately 5 cm at 37° C. for 5 minutes. The cells were incubated in a 5% carbon dioxide atmosphere at 37° C. for 48 hours. The cell viability was measured by using the Cell Count Reagent SF (NACALAI TESQUE, INC., Kyoto, Japan) with WST-8 (2-(2-methoxy-4-nitrophenyl)-3-(4-nitrophenyl)-5-(2,4-disulfophenyl)-2H-tetrazolium).
b: LC50 (dark) indicates the toxicity of a compound itself, and LC50 (light) indicates the phototoxicity of a compound. The PC 12 cells were placed in dark or subjected to photocatalytic treatment under light irradiation (wavelength: 660 nm), and incubated at 37° C. for 5 minutes, and then in a 5% carbon dioxide atmosphere at 37° C. for 48 hours, for which the cell viability was analyzed (n=5, mean±SEM).
b: The PC 12 cells were treated together with a photocatalyst (1 μM) at 37° C. for 5 minutes in dark or under light irradiation (wavelength: 780 nm), and thereafter the cell viability was analyzed (n=3, mean±SEM).

A short description of data set [5]: Maximum wavelength λmax of photocatalysts. In kind it is physicochemical. As to conditions: Table 2.

For the compound `O=C(O)CCCCCN1CCCc2cc(/C=C/C3=[O+][B-](F)(C(F)(F)C(F)(F)F)OC(/C=C/c4cc5c6c(c4)CCCN6CCC5)=C3Br)ccc21` (stereo not drawn) [Compound E], the “toxicity under light irradiation (ranking)” value in the data set with PC 12 cells [1] is on record as “the lowest”. Also, in data set [2], the “stability of catalyst (ranking)” value is “stability was higher”. The “decrease of peak intensity (conversion) of Arctic Aβ1-38” value is reported as 36% at Arctic Aβ1-38 (30 minutes), 53% at Arctic Aβ1-38 (60 minutes) and 74% on Arctic Aβ1-38 (150 minutes). Besides, the “decrease of peak intensity (conversion) of Arctic Aβ1-42” value in the data set on Arctic Aβ1-42 (30 minutes) was determined as 43%; with Arctic Aβ1-42 (60 minutes), 60%; with Arctic Aβ1-42 (150 minutes) it was 83%. The “oxygenation of N-benzoyl-Met” value in data set [3] is reported as “accelerated as the viscosity of the solvent was higher”. For the same compound, the “Degree of oxygenation (%) of Aβ42 (λ = 780 nm)” value at Aβ1-42 came to 58%. This compound yielded a CC50 in the data set with PC 12 cells [4] of more than 10 µM. Further, in data set [5], the “Maximum wavelength λmax (nm)” value is given as 639 nm.

The term CC50 denotes the concentration that lowers cell viability or growth by half. Read a low CC50 as harm at low concentration.
